Experimental findings from patent US10913738B2 (BRISTOL-MYERS SQUIBB COMPANY, priority 2017, dated 2021) are described below.

Assay [1] deals with T1, His-GST-TVMV-hRIPK1(1-324) (Homo sapiens, UniProt Q13546).
T1 construct: The coding region of human RIPK1(1-324) flanked by NdeI site at 5′ end; made in house; host or cells: Spodoptera frugiperda (Sf9) insect cells, baculovirus
T1 sequence (Q13546 1-324): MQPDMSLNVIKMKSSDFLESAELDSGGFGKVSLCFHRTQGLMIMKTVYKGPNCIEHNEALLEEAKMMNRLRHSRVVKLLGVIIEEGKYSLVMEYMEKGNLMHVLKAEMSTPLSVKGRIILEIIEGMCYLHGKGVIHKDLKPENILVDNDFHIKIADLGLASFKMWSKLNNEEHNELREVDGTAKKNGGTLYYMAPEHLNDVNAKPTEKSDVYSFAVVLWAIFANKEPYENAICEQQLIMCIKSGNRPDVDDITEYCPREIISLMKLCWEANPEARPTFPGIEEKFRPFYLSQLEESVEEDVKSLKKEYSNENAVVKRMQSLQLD
In words: RIPK1 HTRF Binding Assay. (In general: Time-resolved FRET reads energy transfer from a long-lived donor to a nearby acceptor.)

For assay [2], the system named is MLKL phosphorylation in HT29-L23 human colorectal adenocarcinoma cells. In words: MLKL Phosphorylation High-Content Assay. It counts as cell-based. The settings on record: Homo sapiens. The method, boiled down: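 Cells incubated six hours at 37° C., then phospho-MLKL (S358) immunostained overnight at 4° C. and imaged by high-content microscopy. Phosphorylation quantified as mean circ-ring average intensity ratio; IC50 and Ymax from 4-parameter logistic fits.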

Setting [3] is: x marks IC50 class <20 nM, read-out: RIPK1 HTRF binding <20 nM.
[4] abbreviates: x marks IC50 class <20 nM, read-out: pMLKL cell activity <20 nM.
Setting [5] is: x marks IC50 class 20-200 nM, read-out: pMLKL cell activity 20-200 nM.
Where [6] appears, read: x marks IC50 class >200 nM, read-out: pMLKL cell activity >200 nM.
The mark [7] stands for this setting: x marks IC50 class 20-200 nM, read-out: RIPK1 HTRF binding 20-200 nM.
Where [8] appears, read: x marks IC50 class >200 nM, read-out: RIPK1 HTRF binding >200 nM.

Where two headings read alike, the source gives them in different places.

In the case of `COc1nc(C)c(-c2ccn3nc(N)nc3c2)cc1C(=O)NCc1ccccc1OC1CCOCC1` [Example 195, 5-{2-amino-[1,2,4]triazolo[1,5-a]pyridin-7-yl}-2-methoxy-6-methyl-N-{[2-(oxan-4-yloxy)phenyl]methyl}pyridine-3-carboxamide], the IC50 in assay [1] (setting [3]) and in assay [2] (setting [4]) was less than 20 nM in each case.
For the molecule `Cc1nc(C)c(-c2ccn3nc(N)nc3c2)cc1C(=O)NCc1c(F)cc(F)cc1OCC1CCCC1` [Example 177, 5-{2-amino-[1,2,4]triazolo[1,5-a]pyridin-7-yl}-N-{[2-(cyclopentylmethoxy)-4,6-difluorophenyl]methyl}-2,6-dimethylpyridine-3-carboxamide], the IC50 in assay [1] (setting [3]) was less than 20 nM; in assay [2] (setting [5]) it was 20 to 200 nM.
The like results for `COc1nc(C)c(-c2ccn3nc(N)nc3c2)cc1C(=O)NCc1cc(F)cc(F)c1OC1CC(C)OC(C)C1` (centres unmarked) [Example 353, 5-(2-amino-[1,2,4]triazolo[1,5-a]pyridin-7-yl)-N-(2-((2,6-dimethyltetrahydro-2H-pyran-4-yl)oxy)-3,5-difluorobenzyl)-2-methoxy-6-methylnicotinamide] were, in that order, less than 20 nM and 20 to 200 nM.
The like results for `[2H]C([2H])(NC(=O)c1cc(-c2ccn3nc(N)nc3c2)cnc1OC)c1cc(OC(F)(F)F)ccc1F` [Example 87, 5-{2-amino-[1,2,4]triazolo[1,5-a]pyridin-7-yl}-N-{[2-fluoro-5-(trifluoromethoxy)phenyl] (deutero)methyl}-2-methoxypyridine-3-carboxamide] were, in that order, less than 20 nM and 20 to 200 nM.
Take `COc1nc(C)c(-c2ccn3nc(N)nc3c2)cc1C(=O)NCc1ncccc1OCC(F)(F)F` [Example 366, 5-(2-amino-[1,2,4]triazolo[1,5-a]pyridin-7-yl)-2-methoxy-6-methyl-N-((3-(2,2,2-trifluoroethoxy)pyridin-2-yl)methyl)nicotinamide]: the IC50 in assay [1] (setting [3]) is less than 20 nM; in assay [2] (setting [6]), more than 200 nM.
Turning to `COc1ccc(CC2CCCN(C(=O)c3cc(-c4ccn5nc(N)nc5c4)cnc3OC)C2)cc1` (centres unmarked) [Example 120, 7-(6-methoxy-5-{3-[(4-methoxyphenyl)methyl]piperidine-1-carbonyl}pyridin-3-yl)-[1,2,4]triazolo[1,5-a]pyridin-2-amine], the IC50 in assay [1] (setting [7]) and in assay [2] (setting [5]) was 20 to 200 nM throughout.
Turning to `Cc1ncc(-c2ccn3nc(N)nc3c2)cc1C(=O)NCc1ccccc1OC1CCCC1` [Example 249, 5-{2-amino-[1,2,4]triazolo[1,5-a]pyridin-7-yl}-N-{[2-(cyclopentyloxy)phenyl]methyl}-2-methylpyridine-3-carboxamide], the IC50 in assay [1] (setting [3]) and in assay [2] (setting [4]) was less than 20 nM each time.
In the case of `COc1ncc(-c2ccn3nc(N)nc3c2)cc1C(=O)NCc1ccccc1OC(C)C1CCCC1` (centres unmarked) [Example 125, 5-{2-amino-[1,2,4]triazolo[1,5-a]pyridin-7-yl}-N-{[2-(1-cyclopentylethoxy)phenyl]methyl}-2-methoxypyridine-3-carboxamide], the IC50 is less than 20 nM in assay [1] (setting [3]) and 20 to 200 nM in assay [2] (setting [5]).
Turning to `Cc1ccc(-c2ccn3nc(N)nc3c2)nc1C(=O)NCC[C@@H](O)c1ccc(Cl)cc1` [Example 402, (R)-6-(2-amino-[1,2,4]triazolo[1,5-a]pyridin-7-yl)-N-(3-(4-chlorophenyl)-3-hydroxypropyl)-3-methylpicolinamide], the IC50 in assay [1] (setting [7]) and in assay [2] (setting [5]) was 20 to 200 nM in each case.
As for `COc1cnc(-c2ccn3nc(N)nc3c2)cc1C(=O)NCCC(C)c1ccccc1` (centres unmarked) [Example 390, 2-(2-amino-[1,2,4]triazolo[1,5-a]pyridin-7-yl)-5-methoxy-N-(3-phenylbutyl)isonicotinamide], the results for the IC50 in assay [1] (setting [7]) and in assay [2] (setting [6]) were 20 to 200 nM and more than 200 nM, respectively.
As for `Nc1nc2cc(-c3cncc(C(=O)NCc4cc(F)ccc4OC4CCCC4)c3)ccn2n1` [Example 41, 5-{2-Amino-[1,2,4]triazolo[1,5-a]pyridin-7-yl}-N-{[2-(cyclopentyloxy)-5-fluorophenyl]methyl}pyridine-3-carboxamide], the IC50 in assay [1] (setting [3]) was less than 20 nM; in assay [2] (setting [5]), 20 to 200 nM.
Take `Nc1nc2cc(-c3cnc(Cl)c(C(=O)NCc4ccccc4OC4CCOC4)c3)ccn2n1` (centres unmarked) [Example 165]: the IC50 in assay [1] (setting [7]) and in assay [2] (setting [5]) was 20 to 200 nM in each case.
In the case of `Cc1cnc(-c2ccn3nc(N)nc3c2)nc1C(=O)NCC[C@@H](O)c1ccc(Cl)cc1` [Example 408, (R)-2-(2-amino-[1,2,4]triazolo[1,5-a]pyridin-7-yl)-N-(3-(4-chlorophenyl)-3-hydroxypropyl)-5-methylpyrimidine-4-carboxamide], the IC50 in assay [1] (setting [7]) and in assay [2] (setting [5]) was 20 to 200 nM each time.
For the molecule `Cc1nc(C)c(-c2ccn3nc(N)nc3c2)cc1C(=O)NCc1ccccc1OCC1CCCC1` [Example 186, 5-{2-amino-[1,2,4]triazolo[1,5-a]pyridin-7-yl}-N-{[2-(cyclopentylmethoxy)phenyl]methyl}-2,6-dimethylpyridine-3-carboxamide], the IC50 in assay [1] (setting [3]) is less than 20 nM; in assay [2] (setting [5]), 20 to 200 nM.
For `Nc1nc2cc(-c3cnc(Cl)c(C(=O)NCc4ccc(F)cc4OCC4CC4)c3)ccn2n1` [Example 1, 5-(2-Amino-[1,2,4]triazolo[1,5-a]pyridin-7-yl)-2-chloro-N-([2-(cyclopropylmethoxy)-4-fluorophenyl]methyl)pyridine-3-carboxamide], the IC50 in assay [1] (setting [8]) and in assay [2] (setting [6]) was more than 200 nM in each case.
For the molecule `CNc1ncc(-c2ccn3nc(N)nc3c2)cc1C(=O)NCc1ccccc1Sc1ccccc1CO` [Example 57], the values for the IC50 in assay [1] (setting [3]) and in assay [2] (setting [5]) were less than 20 nM and 20 to 200 nM, respectively.
Consider `Cc1ncc(-c2ccn3nc(N)nc3c2)cc1C(=O)NCc1cccnc1OCC1CCCC1` [Example 231, 5-{2-amino-[1,2,4]triazolo[1,5-a]pyridin-7-yl}-N-{[2-(cyclopentylmethoxy)pyridin-3-yl]methyl}-2-methylpyridine-3-carboxamide], for which the IC50 in assay [1] (setting [7]) is 20 to 200 nM; in assay [2] (setting [6]) it was more than 200 nM.
For the molecule `COc1nc(C)c(-c2ccn3nc(N)nc3c2)cc1C(=O)NCc1ccccc1OCC1CC(=O)C1` [Example 3, 5-{2-Amino-[1,2,4]triazolo[1,5-a]pyridin-7-yl}-2-methoxy-6-methyl-N-({2-[(3-oxocyclobutyl)methoxy]phenyl}methyl)pyridine-3-carboxamide], the IC50 in assay [1] (setting [7]) and in assay [2] (setting [5]) was 20 to 200 nM throughout.
As to `COc1ccccc1CNC(=O)c1cc(-c2ccn3nc(N)nc3c2)cnc1OC` [Example 154, 5-{2-amino-[1,2,4]triazolo[1,5-a]pyridin-7-yl}-2-methoxy-N-[(2-methoxyphenyl)methyl]pyridine-3-carboxamide], the IC50 in assay [1] (setting [8]) and in assay [2] (setting [6]) was more than 200 nM in each case.
As to `CCOc1ncc(-c2ccn3nc(N)nc3c2)cc1C(=O)NCc1ccccc1S(=O)(=O)c1ccccc1CO` [Example 270, 5-{2-amino-[1,2,4]triazolo[1,5-a]pyridin-7-yl}-2-ethoxy-N-({2-[2-(hydroxymethyl)benzenesulfonyl]phenyl}methyl)pyridine-3-carboxamide], the values for the IC50 in assay [1] (setting [3]) and in assay [2] (setting [5]) were less than 20 nM and 20 to 200 nM, respectively.
For `Cc1nc(C)c(-c2ccn3nc(N)nc3c2)cc1C(=O)NCc1ccccc1OCC1CC1` [Example 185, 5-{2-amino-[1,2,4]triazolo[1,5-a]pyridin-7-yl}-N-{[2-(cyclopropylmethoxy)phenyl]methyl}-2,6-dimethylpyridine-3-carboxamide], the IC50 in assay [1] (setting [3]) and in assay [2] (setting [4]) was less than 20 nM in each case.
Consider `COc1nc(C)c(-c2ccn3nc(N)nc3c2)cc1C(=O)NCc1cc(F)ccc1OC1CCCC1` [Example 216, 5-{2-amino-[1,2,4]triazolo[1,5-a]pyridin-7-yl}-N-{[2-(cyclopentyloxy)-5-fluorophenyl]methyl}-2-methoxy-6-methylpyridine-3-carboxamide], for which the IC50 in assay [1] (setting [3]) and in assay [2] (setting [4]) was less than 20 nM each time.
With `COc1nc(C)c(-c2ccn3nc(N)nc3c2)cc1C(=O)NCc1ccccc1OCC1CCCCC1` [Example 7, 5-{2-Amino-[1,2,4]triazolo[1,5-a]pyridin-7-yl}-N-{[2-(cyclohexylmethoxy)phenyl]methyl}-2-methoxy-6-methylpyridine-3-carboxamide], the IC50 in assay [1] (setting [3]) was less than 20 nM; in assay [2] (setting [5]), 20 to 200 nM.
On to `[2H]C([2H])([2H])Oc1ncc(-c2ccn3nc(N)nc3c2)cc1C(=O)NCc1cc(F)cc(F)c1OCC1CC1` [Example 94, 5-{2-amino-[1,2,4]triazolo[1,5-a]pyridin-7-yl}-N-{[2-(cyclopropylmethoxy)-3,5-difluorophenyl]methyl}-2-(deutero)methoxypyridine-3-carboxamide], for which the IC50 in assay [1] (setting [3]) and in assay [2] (setting [4]) was less than 20 nM throughout.
On to `[2H]C([2H])(NC(=O)c1cc(-c2ccn3nc(N)nc3c2)cnc1OC)c1ccccc1OC(F)(F)F` [Example 2, 5-{2-Amino-[1,2,4]triazolo[1,5-a]pyridin-7-yl}-2-methoxy-N-{[2-(trifluoromethoxy)phenyl](^2H)methyl}pyridine-3-carboxamide], for which the IC50 in assay [1] (setting [7]) and in assay [2] (setting [5]) was 20 to 200 nM in each case.
